Structures are written as SMILES. Where a name gives a salt, the structure may show the parent alone.

From patent publication US8791267B2, “Biaryl PDE4 inhibitors for treating inflammatory, cardiovascular and CNS disorders” (Decode Genetics EHF, priority 2007, dated 2014) come the findings set out here.

The target in test [1] is PDE4 (Homo sapiens, UniProt Q08499). Kind of test: In-vitro assay for PDE4 enzymes, real-time enzyme-coupled spectrophotometric assay (Table 9). Type of test: biochemical. Conditions: human PDE4D; activity class, Table 9; read-out: hPDE4D.
The target in test [2] is PDE4B (Homo sapiens, UniProt Q07343). Kind of test: In-vitro assay for PDE4 enzymes, real-time enzyme-coupled spectrophotometric assay, PDE4B Activity (Table 10). Type of test: biochemical. Conditions: human PDE4B (hPDE4B), enzyme-coupled spectrophotometric assay; read-out: PDE4B Activity, hPDE4B.
PDE4B, sequence (Q07343 whole entry): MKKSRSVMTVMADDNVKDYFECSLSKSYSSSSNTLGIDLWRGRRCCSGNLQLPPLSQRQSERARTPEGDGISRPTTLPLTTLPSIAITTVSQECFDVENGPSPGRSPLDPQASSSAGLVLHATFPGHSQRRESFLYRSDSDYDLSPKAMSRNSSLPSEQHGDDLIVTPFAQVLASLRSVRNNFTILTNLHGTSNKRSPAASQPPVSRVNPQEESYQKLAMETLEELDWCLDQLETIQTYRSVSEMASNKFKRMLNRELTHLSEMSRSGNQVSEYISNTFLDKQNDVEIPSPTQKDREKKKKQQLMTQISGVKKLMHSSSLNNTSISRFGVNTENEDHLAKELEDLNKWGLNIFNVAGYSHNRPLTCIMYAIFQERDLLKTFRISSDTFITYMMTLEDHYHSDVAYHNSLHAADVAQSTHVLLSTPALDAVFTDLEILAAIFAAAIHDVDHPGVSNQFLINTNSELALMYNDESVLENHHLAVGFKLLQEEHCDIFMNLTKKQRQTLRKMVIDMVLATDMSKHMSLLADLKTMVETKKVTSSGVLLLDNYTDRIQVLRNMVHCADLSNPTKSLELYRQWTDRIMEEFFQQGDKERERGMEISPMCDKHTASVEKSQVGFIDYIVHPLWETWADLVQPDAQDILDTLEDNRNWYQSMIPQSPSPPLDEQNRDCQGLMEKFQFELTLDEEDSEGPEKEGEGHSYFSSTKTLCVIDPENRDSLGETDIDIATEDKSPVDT

PDE4, sequence (Q08499 whole entry): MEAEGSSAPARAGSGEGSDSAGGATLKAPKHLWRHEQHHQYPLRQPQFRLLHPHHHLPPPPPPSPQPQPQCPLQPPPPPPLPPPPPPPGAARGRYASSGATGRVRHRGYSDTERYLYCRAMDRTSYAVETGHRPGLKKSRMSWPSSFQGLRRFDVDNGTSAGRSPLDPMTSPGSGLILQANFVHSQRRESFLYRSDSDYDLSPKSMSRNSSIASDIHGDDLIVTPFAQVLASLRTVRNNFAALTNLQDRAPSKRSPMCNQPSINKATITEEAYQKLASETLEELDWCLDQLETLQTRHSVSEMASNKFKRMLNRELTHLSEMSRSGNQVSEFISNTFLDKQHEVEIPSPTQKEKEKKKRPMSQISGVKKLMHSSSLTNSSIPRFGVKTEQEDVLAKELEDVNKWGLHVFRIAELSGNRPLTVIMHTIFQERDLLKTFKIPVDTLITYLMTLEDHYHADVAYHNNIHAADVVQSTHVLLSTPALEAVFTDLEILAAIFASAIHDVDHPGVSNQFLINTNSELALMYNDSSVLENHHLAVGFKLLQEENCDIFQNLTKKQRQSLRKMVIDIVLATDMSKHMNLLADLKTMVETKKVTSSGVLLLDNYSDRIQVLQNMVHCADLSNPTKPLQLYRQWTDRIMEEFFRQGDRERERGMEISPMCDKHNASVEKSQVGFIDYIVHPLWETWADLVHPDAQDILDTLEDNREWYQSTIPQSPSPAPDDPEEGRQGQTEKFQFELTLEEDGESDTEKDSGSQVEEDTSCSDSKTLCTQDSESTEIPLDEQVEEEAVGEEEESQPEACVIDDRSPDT

Take `COc1ccc(Nc2ccc(N)cc2)cc1-c1cccc(C(C)=O)c1` [P-260, 1-[5′-(4-Amino-phenylamino)-2′-methoxy-biphenyl-3-yl]-ethanone hydrochloride]: the IC50 in test [1] was under 5 µM; in test [2] it was 5 to 20 µM.

For the molecule `COc1ccc(Cc2ccc(OCCN(C)C)cc2)cc1-c1cccc([N+](=O)[O-])c1` [P-164], the IC50 is under 5 µM in test [1] and 5 to 20 µM in test [2].

Consider `COc1ccc(Cc2ccc(NS(C)(=O)=O)nc2)c(F)c1-c1cccc(Cl)c1` [P-258, N-[5-(3′-chloro-2-fluoro-6-methoxy-biphenyl-3-ylmethyl)-pyridin-2-yl]-methanesulfonamide], for which the IC50 in test [1] and in test [2] was under 5 µM in each case.

With `COc1ccc(CN2CCCC2=O)cc1-c1ccc(F)c(F)c1` [P-223, 1-(3′,4′-difluoro-6-methoxy-biphenyl-3-ylmethyl)-pyrrolidin-2-one], the IC50 in test [1] and in test [2] was 5 to 20 µM throughout.

Consider `COc1cccc(-c2cc(Cn3cncn3)ccc2OC)c1` [P-086, 1-(6,3′-Dimethoxy-biphenyl-3-ylmethyl)-1H-[1,2,4]triazole], for which the IC50 in test [1] was under 5 µM; in test [2], 5 to 20 µM.

For the molecule `COc1ccc(Cc2ccc(OCCN3CCCC3)cc2)cc1-c1cccc([N+](=O)[O-])c1` [P-165], the IC50 in test [1] is under 5 µM; in test [2] it was 5 to 20 µM.

On to `COc1ccc(Cc2ccncc2)cc1-c1ccc2nonc2c1` [P-011], for which the IC50 in test [1] and in test [2] was under 5 µM throughout.

Take `COc1ccc(Cn2cnc(C(N)=O)c2)c(F)c1-c1cccc(Cl)c1` [P-534, 1-(3′-Chloro-2-fluoro-6-methoxy-biphenyl-3-ylmethyl)-1H-imidazole-4-carboxylic acid amide]: the IC50 in test [1] and in test [2] was under 5 µM in each case.

As for `COc1ccc(Cn2ccc(C(N)=O)cc2=O)cc1-c1cccc([N+](=O)[O-])c1` [P-207, 1-(6-Methoxy-3′-nitro-biphenyl-3-ylmethyl)-2-oxo-1,2-dihydro-pyridine-4-carboxylic acid amide], the IC50 was 5 to 20 µM in test [1] and under 5 µM in test [2].

As for `COc1ccc(Cc2ccc(N)cc2)cc1-c1cccc([N+](=O)[O-])c1` [P-113], the IC50 in test [1] and in test [2] was under 5 µM in each case.

As for `COc1ccc(Cc2ccc3c(c2)OCO3)nc1-c1cccc([N+](=O)[O-])c1` [P-021, 6-benzo[1,3]dioxol-5-ylmethyl-3-methoxy-2-(3-nitro-phenyl)-pyridine], the IC50 in test [1] was under 5 µM; in test [2], 5 to 20 µM.

With `COc1ccc(Cc2ccc(CNC(N)=O)c(F)c2)c(F)c1-c1cccc(Cl)c1` [P-287], the IC50 in test [1] and in test [2] was under 5 µM each time.

`COc1ccc(CN2CCCCS2(=O)=O)cc1-c1cccc([N+](=O)[O-])c1` [P-035, 2-(6-Methoxy-3′-nitro-biphenyl-3-ylmethyl)-[1,2]thiazinane 1,1-dioxide]: the IC50 in test [1] and in test [2] was under 5 µM each time.

On to `COc1ccc(Cc2ccc(N)cc2)c(F)c1-c1cccc(Br)c1` [P-453], for which the IC50 in test [1] and in test [2] was under 5 µM throughout.

For `COc1ccc(Cn2cnc(-c3cccnc3)c2)c(F)c1-c1cccc(Cl)c1` [P-479, 3-[1-(3′-Chloro-2-fluoro-6-methoxy-biphenyl-3-ylmethyl)-1H-imidazol-4-yl]-pyridine], the values for the IC50 in test [1] and in test [2] were under 5 µM and 5 to 20 µM, respectively.

For `COc1ccc(CN2CCCC2=O)cc1-c1cccc(C(C)=O)c1` [P-172, 1-(3′-Acetyl-6-methoxy-biphenyl-3-ylmethyl)-pyrrolidin-2-one], the IC50 in test [1] and in test [2] was under 5 µM in each case.

For the molecule `CCNC(=O)Nc1nnc(Cc2ccc(OC)c(-c3cccc(Cl)c3)c2F)s1` [P-343, 1-[5-(3′-Chloro-2-fluoro-6-methoxy-biphenyl-3-ylmethyl)-[1,3,4]thiadiazol-2-yl]-3-ethyl-urea], the IC50 in test [1] and in test [2] was under 5 µM each time.

In the case of `COc1ccc(Cn2ccnc2)cc1-c1ccc2c(c1)OCO2` [P-037, 1-(3-Benzo[1,3]dioxol-5-yl-4-methoxy-benzyl)-1H-imidazole], the IC50 in test [1] and in test [2] was under 5 µM throughout.

Turning to `COc1ccc(Cc2c(C)noc2C)cc1-c1ccc2c(c1)OCO2` [P-062, 4-(3-Benzo[1,3]dioxol-5-yl-4-methoxy-benzyl)-3,5-dimethyl-isoxazole], the IC50 in test [1] and in test [2] was under 5 µM in each case.

Consider `[2H]C([2H])([2H])Oc1ccc(Cc2ccc(NC(N)=O)cc2)cc1-c1cccc(Cl)c1` [P-516], for which the IC50 in test [1] and in test [2] was under 5 µM throughout.

On to `COc1ccc(Cc2ccc(N)cc2)c(F)c1-c1cccc(C(C)=O)c1` [P-261, 1-[3′-(4-Amino-benzyl)-2′-fluoro-6′-methoxy-biphenyl-3-yl]-ethanone; hydrochloride], for which the IC50 in test [1] and in test [2] was under 5 µM in each case.

Turning to `COc1ccc(Cc2ccc(C(N)=O)cc2)c(F)c1-c1cccc(C(C)=O)c1` [P-305, 4-(3′-Acetyl-2-fluoro-6-methoxy-biphenyl-3-ylmethyl)-benzamide], the IC50 was under 5 µM in test [1] and 5 to 20 µM in test [2].

Regarding `CCOC(=O)NCc1ccc(Cc2ccc(OC)c(-c3cccc(Cl)c3)c2F)cn1` [P-367, [5-(3′-Chloro-2-fluoro-6-methoxy-biphenyl-3-ylmethyl)-pyridin-2-ylmethyl]-carbamic acid ethyl ester], the IC50 in test [1] and in test [2] was under 5 µM in each case.

`COc1ccc(Cc2cccc(NC(N)=O)c2)cc1-c1cccc(Cl)c1` [P-270, [3-(3′-Chloro-6-methoxy-biphenyl-3-ylmethyl)-phenyl]-urea]: the figures for the IC50 in test [1] and in test [2] were under 5 µM and 5 to 20 µM, respectively.

As for `COc1ccc(Cc2ccc(CNC(C)=O)c(O)c2)c(F)c1-c1cccc(Cl)c1` [P-302], the IC50 in test [1] and in test [2] was under 5 µM throughout.

As for `COc1ccc(Cc2cnc(Cl)nc2)c(F)c1-c1cccc(Cl)c1` [P-392], the IC50 in test [1] and in test [2] was under 5 µM throughout.

With `COc1ccc(Cc2ccc(C#N)nc2)cc1-c1cccc(Cl)c1` [P-590, 5-(3′-chloro-6-methoxy-biphenyl-3-ylmethyl)-pyridine-2-carbonitrile], the IC50 in test [1] and in test [2] was under 5 µM throughout.

Turning to `CCOC(=O)Cn1nc(C)c(Cc2ccc(OC)c(-c3cccc([N+](=O)[O-])c3)c2)c1C` [P-087, [4-(6-Methoxy-3′-nitro-biphenyl-3-ylmethyl)-3,5-dimethyl-pyrazol-1-yl]-acetic acid ethyl ester], the IC50 in test [1] and in test [2] was under 5 µM in each case.

Take `COc1ccc(Cc2ccc[nH]c2=O)c(O)c1-c1cccc(N)c1` [P-185]: the IC50 in test [1] lay in the range of 5 to 20 µM; in test [2] it was 21 to 40 µM.

Turning to `COc1ccc(Cc2cnc(NS(C)(=O)=O)nc2)c(F)c1-c1cccc(Cl)c1` [P-292], the IC50 in test [1] was under 5 µM; in test [2], 5 to 20 µM.

On to `COc1ccc(CN2C[C@@H](O)CC2=O)cc1-c1cccc([N+](=O)[O-])c1` [P-248, (S)-4-Hydroxy-1-(6-methoxy-3′-nitro-biphenyl-3-ylmethyl)-pyrrolidin-2-one], for which the IC50 in test [1] and in test [2] was under 5 µM in each case.

Consider `COc1ccc(CN2C(=O)CCC2=O)cc1-c1cccc([N+](=O)[O-])c1` [P-036, 1-(6-Methoxy-3′-nitro-biphenyl-3-ylmethyl)-pyrrolidine-2,5-dione], for which the IC50 was under 5 µM in test [1] and 5 to 20 µM in test [2].

As for `CCNC(=O)Nc1ccc(Cc2ccc(OC)c(-c3cccc(Cl)c3)c2F)cn1` [P-356], the IC50 in test [1] and in test [2] was under 5 µM each time.

For `COc1ccc(Cc2ccc(NC(N)=O)cc2)c(F)c1-c1cccc(Br)c1` [P-347], the IC50 in test [1] and in test [2] was under 5 µM in each case.

Turning to `COc1ccc(Cc2ccc(-n3cnnn3)nc2)c(F)c1-c1cccc(Cl)c1` [P-422, 5-(3′-chloro-2-fluoro-6-methoxy-biphenyl-3-ylmethyl)-2-tetrazol-1-yl-pyridine], the IC50 in test [1] and in test [2] was under 5 µM in each case.

In the case of `COc1ccc(Cc2cnc(NS(C)(=O)=O)nc2)c(F)c1-c1cccc(C(C)=O)c1` [P-284, N-[5-(3′-Acetyl-2-fluoro-6-methoxy-biphenyl-3-ylmethyl)-pyrimidin-2-yl]-methanesulfonamide], the IC50 in test [1] and in test [2] was under 5 µM throughout.

As for `COc1ccc(Cc2ccc(NC(N)=O)cc2)cc1-c1cccc(Cl)c1` [P-378, [4-(3′-chloro-6-methoxy-biphenyl-3-ylmethyl)-phenyl]-urea], the IC50 in test [1] and in test [2] was under 5 µM each time.

With `CCOc1ccc(Cc2ccc(N)cc2)c(F)c1-c1cccc(C(C)=O)c1` [P-334, 1-[3′-(4-Amino-benzyl)-6′-ethoxy-2′-fluoro-biphenyl-3-yl]-ethanone; hydrochloride], the IC50 in test [1] and in test [2] was under 5 µM throughout.

`COc1ccc(Cc2cnc(N(C)C)nc2)c(F)c1-c1cccc(C(C)=O)c1` [P-325, 1-[3′-(2-Dimethylamino-pyrimidin-5-ylmethyl)-2′-fluoro-6′-methoxy-biphenyl-3-yl]-ethanone]: the IC50 in test [1] and in test [2] was under 5 µM in each case.

`COc1ccc(Cc2ccc(NC(=O)OC(C)(C)C)cc2)cc1-c1cccc([N+](=O)[O-])c1` [P-112]: the IC50 in test [1] and in test [2] was under 5 µM in each case.

In the case of `COc1ccc(Cc2ccc(NS(C)(=O)=O)cc2)c(F)c1-c1cccc(Br)c1` [P-200], the IC50 in test [1] and in test [2] was under 5 µM each time.

As for `COc1ccc(CN2C(=O)CCCC2=O)cc1-c1cccc([N+](=O)[O-])c1` [P-040, 1-(6-Methoxy-3′-nitro-biphenyl-3-ylmethyl)-piperidine-2,6-dione], the IC50 in test [1] and in test [2] was 5 to 20 µM each time.

Take `COC(=O)Nc1nnc(Cc2ccc(OC)c(-c3cccc(Cl)c3)c2F)s1` [P-342, Methyl[5-(3′-Chloro-2-fluoro-6-methoxy-biphenyl-3-ylmethyl)-[1,3,4]thiadiazol-2-yl]-carbamate]: the IC50 in test [1] and in test [2] was under 5 µM each time.
